In the NIST ThermoML archive (doi:10.1021/acs.jced.9b00752):

Assay: mn = molality of the nth substance listed, in mol/kg
Details: 100 kPa, Liquid, Vibrating tube method

N[C@@H](Cc1ccccc1)C(=O)O [L-phenylalanine] + O
Details | mass density [kg/m3]
273.65 K, m1 = 0.0036 | 1000.05
273.65 K, m1 = 0.011 | 1000.4
273.65 K, m1 = 0.0183 | 1000.75
273.65 K, m1 = 0.033 | 1001.44
273.65 K, m1 = 0.0443 | 1002.02
273.65 K, m1 = 0.0536 | 1002.42
273.65 K, m1 = 0.0623 | 1002.84
273.65 K, m1 = 0.074 | 1003.38
273.65 K, m1 = 0.0855 | 1003.95
273.65 K, m1 = 0.0981 | 1004.56
273.65 K, m1 = 0.1158 | 1005.44
274.15 K, m1 = 0.0036 | 1000.08
274.15 K, m1 = 0.011 | 1000.42
274.15 K, m1 = 0.0183 | 1000.77
274.15 K, m1 = 0.033 | 1001.46
274.15 K, m1 = 0.0443 | 1002.04
274.15 K, m1 = 0.0536 | 1002.44
274.15 K, m1 = 0.0623 | 1002.86
274.15 K, m1 = 0.074 | 1003.4
274.15 K, m1 = 0.0855 | 1003.96
274.15 K, m1 = 0.0981 | 1004.58
274.15 K, m1 = 0.1158 | 1005.46
274.65 K, m1 = 0.0036 | 1000.1
274.65 K, m1 = 0.011 | 1000.45
274.65 K, m1 = 0.0183 | 1000.79
274.65 K, m1 = 0.033 | 1001.48
274.65 K, m1 = 0.0443 | 1002.06
274.65 K, m1 = 0.0536 | 1002.46
274.65 K, m1 = 0.0623 | 1002.87
274.65 K, m1 = 0.074 | 1003.42
274.65 K, m1 = 0.0855 | 1003.98
274.65 K, m1 = 0.0981 | 1004.59
274.65 K, m1 = 0.1158 | 1005.47
275.15 K, m1 = 0.0036 | 1000.12
275.15 K, m1 = 0.011 | 1000.46
275.15 K, m1 = 0.0183 | 1000.81
275.15 K, m1 = 0.033 | 1001.49
275.15 K, m1 = 0.0443 | 1002.07
275.15 K, m1 = 0.0536 | 1002.47
275.15 K, m1 = 0.0623 | 1002.88
275.15 K, m1 = 0.074 | 1003.43
275.15 K, m1 = 0.0855 | 1003.99
275.15 K, m1 = 0.0981 | 1004.6
275.15 K, m1 = 0.1158 | 1005.47
275.65 K, m1 = 0.0036 | 1000.13
275.65 K, m1 = 0.011 | 1000.48
275.65 K, m1 = 0.0183 | 1000.82
275.65 K, m1 = 0.033 | 1001.5
275.65 K, m1 = 0.0443 | 1002.08
275.65 K, m1 = 0.0536 | 1002.48
275.65 K, m1 = 0.0623 | 1002.89
275.65 K, m1 = 0.074 | 1003.43
275.65 K, m1 = 0.0855 | 1003.99
275.65 K, m1 = 0.0981 | 1004.6
275.65 K, m1 = 0.1158 | 1005.47
276.15 K, m1 = 0.0036 | 1000.14
276.15 K, m1 = 0.011 | 1000.49
276.15 K, m1 = 0.0183 | 1000.83
276.15 K, m1 = 0.033 | 1001.51
276.15 K, m1 = 0.0443 | 1002.09
276.15 K, m1 = 0.0536 | 1002.48
276.15 K, m1 = 0.0623 | 1002.89
276.15 K, m1 = 0.074 | 1003.43
276.15 K, m1 = 0.0855 | 1004
276.15 K, m1 = 0.0981 | 1004.6
276.15 K, m1 = 0.1158 | 1005.47
276.65 K, m1 = 0.0036 | 1000.14
276.65 K, m1 = 0.011 | 1000.49
276.65 K, m1 = 0.0183 | 1000.83
276.65 K, m1 = 0.033 | 1001.51
276.65 K, m1 = 0.0443 | 1002.09
276.65 K, m1 = 0.0536 | 1002.48
276.65 K, m1 = 0.0623 | 1002.89
276.65 K, m1 = 0.074 | 1003.43
276.65 K, m1 = 0.0855 | 1003.99
276.65 K, m1 = 0.0981 | 1004.59
276.65 K, m1 = 0.1158 | 1005.46
277.15 K, m1 = 0.0036 | 1000.14
277.15 K, m1 = 0.011 | 1000.49
277.15 K, m1 = 0.0183 | 1000.83
277.15 K, m1 = 0.033 | 1001.51
277.15 K, m1 = 0.0443 | 1002.09
277.15 K, m1 = 0.0536 | 1002.47
277.15 K, m1 = 0.0623 | 1002.89
277.15 K, m1 = 0.074 | 1003.43
277.15 K, m1 = 0.0855 | 1003.98
277.15 K, m1 = 0.0981 | 1004.59
277.15 K, m1 = 0.1158 | 1005.45
277.65 K, m1 = 0.0036 | 1000.14
277.65 K, m1 = 0.011 | 1000.49
277.65 K, m1 = 0.0183 | 1000.83
277.65 K, m1 = 0.033 | 1001.5
277.65 K, m1 = 0.0443 | 1002.08
277.65 K, m1 = 0.0536 | 1002.47
277.65 K, m1 = 0.0623 | 1002.88
277.65 K, m1 = 0.074 | 1003.42
277.65 K, m1 = 0.0855 | 1003.97
277.65 K, m1 = 0.0981 | 1004.57
277.65 K, m1 = 0.1158 | 1005.44
278.15 K, m1 = 0.0036 | 1000.13
278.15 K, m1 = 0.011 | 1000.48
278.15 K, m1 = 0.0183 | 1000.82
278.15 K, m1 = 0.033 | 1001.49
278.15 K, m1 = 0.0443 | 1002.07
278.15 K, m1 = 0.0536 | 1002.46
278.15 K, m1 = 0.0623 | 1002.87
278.15 K, m1 = 0.074 | 1003.41
278.15 K, m1 = 0.0855 | 1003.96
278.15 K, m1 = 0.0981 | 1004.56
278.15 K, m1 = 0.1158 | 1005.42
278.65 K, m1 = 0.0036 | 1000.12
278.65 K, m1 = 0.011 | 1000.47
278.65 K, m1 = 0.0183 | 1000.81
278.65 K, m1 = 0.033 | 1001.48
278.65 K, m1 = 0.0443 | 1002.05
278.65 K, m1 = 0.0536 | 1002.44
278.65 K, m1 = 0.0623 | 1002.85
278.65 K, m1 = 0.074 | 1003.39
278.65 K, m1 = 0.0855 | 1003.94
278.65 K, m1 = 0.0981 | 1004.54
278.65 K, m1 = 0.1158 | 1005.4
279.15 K, m1 = 0.0036 | 1000.11
279.15 K, m1 = 0.011 | 1000.45
279.15 K, m1 = 0.0183 | 1000.79
279.15 K, m1 = 0.033 | 1001.47
279.15 K, m1 = 0.0443 | 1002.04
279.15 K, m1 = 0.0536 | 1002.42
279.15 K, m1 = 0.0623 | 1002.83
279.15 K, m1 = 0.074 | 1003.37
279.15 K, m1 = 0.0855 | 1003.92
279.15 K, m1 = 0.0981 | 1004.51
279.15 K, m1 = 0.1158 | 1005.38
279.65 K, m1 = 0.0036 | 1000.09
279.65 K, m1 = 0.011 | 1000.43
279.65 K, m1 = 0.0183 | 1000.77
279.65 K, m1 = 0.033 | 1001.45
279.65 K, m1 = 0.0443 | 1002.02
279.65 K, m1 = 0.0536 | 1002.4
279.65 K, m1 = 0.0623 | 1002.81
279.65 K, m1 = 0.074 | 1003.34
279.65 K, m1 = 0.0855 | 1003.89
279.65 K, m1 = 0.0981 | 1004.49
279.65 K, m1 = 0.1158 | 1005.35
280.15 K, m1 = 0.0036 | 1000.07
280.15 K, m1 = 0.011 | 1000.41
280.15 K, m1 = 0.0183 | 1000.75
280.15 K, m1 = 0.033 | 1001.42
280.15 K, m1 = 0.0443 | 1001.99
280.15 K, m1 = 0.0536 | 1002.37
280.15 K, m1 = 0.0623 | 1002.78
280.15 K, m1 = 0.074 | 1003.32
280.15 K, m1 = 0.0855 | 1003.87
280.15 K, m1 = 0.0981 | 1004.46
280.15 K, m1 = 0.1158 | 1005.32
280.65 K, m1 = 0.0036 | 1000.04
280.65 K, m1 = 0.011 | 1000.39
280.65 K, m1 = 0.0183 | 1000.73
280.65 K, m1 = 0.033 | 1001.39
280.65 K, m1 = 0.0443 | 1001.96
280.65 K, m1 = 0.0536 | 1002.35
280.65 K, m1 = 0.0623 | 1002.75
280.65 K, m1 = 0.074 | 1003.28
280.65 K, m1 = 0.0855 | 1003.83
280.65 K, m1 = 0.0981 | 1004.43
280.65 K, m1 = 0.1158 | 1005.28
281.15 K, m1 = 0.0036 | 1000.02
281.15 K, m1 = 0.011 | 1000.36
281.15 K, m1 = 0.0183 | 1000.7
281.15 K, m1 = 0.033 | 1001.36
281.15 K, m1 = 0.0443 | 1001.93
281.15 K, m1 = 0.0536 | 1002.31
281.15 K, m1 = 0.0623 | 1002.72
281.15 K, m1 = 0.074 | 1003.25
281.15 K, m1 = 0.0855 | 1003.8
281.15 K, m1 = 0.0981 | 1004.39
281.15 K, m1 = 0.1158 | 1005.24
281.65 K, m1 = 0.0036 | 999.986
281.65 K, m1 = 0.011 | 1000.33
281.65 K, m1 = 0.0183 | 1000.66
281.65 K, m1 = 0.033 | 1001.33
281.65 K, m1 = 0.0443 | 1001.9
281.65 K, m1 = 0.0536 | 1002.28
281.65 K, m1 = 0.0623 | 1002.68
281.65 K, m1 = 0.074 | 1003.21
281.65 K, m1 = 0.0855 | 1003.76
281.65 K, m1 = 0.0981 | 1004.35
281.65 K, m1 = 0.1158 | 1005.2
282.15 K, m1 = 0.0036 | 999.952
282.15 K, m1 = 0.011 | 1000.29
282.15 K, m1 = 0.0183 | 1000.63
282.15 K, m1 = 0.033 | 1001.29
282.15 K, m1 = 0.0443 | 1001.86
282.15 K, m1 = 0.0536 | 1002.24
282.15 K, m1 = 0.0623 | 1002.64
282.15 K, m1 = 0.074 | 1003.17
282.15 K, m1 = 0.0855 | 1003.72
282.15 K, m1 = 0.0981 | 1004.31
282.15 K, m1 = 0.1158 | 1005.16
282.65 K, m1 = 0.0036 | 999.913
282.65 K, m1 = 0.011 | 1000.25
282.65 K, m1 = 0.0183 | 1000.59
282.65 K, m1 = 0.033 | 1001.25
282.65 K, m1 = 0.0443 | 1001.82
282.65 K, m1 = 0.0536 | 1002.19
282.65 K, m1 = 0.0623 | 1002.6
282.65 K, m1 = 0.074 | 1003.13
282.65 K, m1 = 0.0855 | 1003.67
282.65 K, m1 = 0.0981 | 1004.26
282.65 K, m1 = 0.1158 | 1005.11
283.15 K, m1 = 0.0036 | 999.87
283.15 K, m1 = 0.011 | 1000.21
283.15 K, m1 = 0.0183 | 1000.54
283.15 K, m1 = 0.033 | 1001.21
283.15 K, m1 = 0.0443 | 1001.77
283.15 K, m1 = 0.0536 | 1002.15
283.15 K, m1 = 0.0623 | 1002.55
283.15 K, m1 = 0.074 | 1003.08
283.15 K, m1 = 0.0855 | 1003.63
283.15 K, m1 = 0.0981 | 1004.21
283.15 K, m1 = 0.1158 | 1005.06
